Measurements taken from patent US8962637B2, “Bicyclic compounds and their uses as dual c-SRC/JAK inhibitors” (Debiopharm S.A., priority 2010, dated 2015).

Tests used:
[1] = target: JAK2 (Homo sapiens (Human), UniProt O60674); test: TR-FRET JAK2 kinase assay; type: biochemical; conditions: ATP 10 μM; for inhibition at 0.1 µM: read-out: JAK2 % inhibition at 100 nM, 100 nM; for inhibition at 1 µM: read-out: JAK2 % inhibition at 1 μM
Procedure: (§1) Compounds were screened in the TR-FRET assay for JAK2 and c-Src kinase inhibition. Ultra light poly GT (Perkin Elmer) was used as the substrate for JAK2 and c-Src with the ATP concentration of 10 μM and 50 μM, respectively. […] The dose-response curve fitting was done using GraphPad Prism software.

[2] = tested on: Mda-Mb-231 cells; test: Cell viability assay (XTT assay), Mda-Mb-231; type: cell-based; conditions: Homo sapiens, 72 hrs
Procedure: (§2) Mda-Mb-231 or A549 cells were seeded onto a 96-well micro plate. Next day compounds were added to cells and incubated for 72 hrs. Compound treatment was done in triplicates. After 72 hrs cell culture media was aspirated from the wells and XTT working solution was added and plates were incubated for 2-5 hrs. The absorbance of the samples was measured with a spectrophotometer at a wavelength of 465 nm. EC50 values were calculated using Graphpad Prism. Tumor cell lines used in the examples of the present invention were procured from ATCC. Description of the cell lines is included in the following table: […]

[3] = target: c-Src (Homo sapiens (Human), UniProt P12931); test: TR-FRET c-Src kinase assay; type: biochemical; conditions: ATP 50 μM; for inhibition at 0.1 µM: read-out: c-SRC % inhibition at 100 nM, 100 nM; for inhibition at 1 µM: read-out: c-SRC % inhibition at 1 μM
c-Src, sequence (P12931 whole entry, looked up): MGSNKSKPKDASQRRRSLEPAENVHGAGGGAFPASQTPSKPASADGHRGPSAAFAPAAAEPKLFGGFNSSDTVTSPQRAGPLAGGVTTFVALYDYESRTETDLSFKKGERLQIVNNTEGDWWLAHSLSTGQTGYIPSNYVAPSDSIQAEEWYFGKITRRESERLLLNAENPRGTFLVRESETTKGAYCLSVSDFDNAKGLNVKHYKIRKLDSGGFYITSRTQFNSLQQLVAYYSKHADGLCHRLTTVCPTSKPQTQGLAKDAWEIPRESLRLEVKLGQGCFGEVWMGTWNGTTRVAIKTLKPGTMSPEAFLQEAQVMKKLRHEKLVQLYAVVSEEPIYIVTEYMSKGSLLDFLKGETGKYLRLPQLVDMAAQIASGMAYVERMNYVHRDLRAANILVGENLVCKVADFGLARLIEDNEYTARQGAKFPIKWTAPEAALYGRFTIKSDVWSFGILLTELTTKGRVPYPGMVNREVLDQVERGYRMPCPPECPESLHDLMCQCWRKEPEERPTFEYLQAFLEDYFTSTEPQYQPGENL
Procedure: as §1

[4] = tested on: A431 cancer cell line; test: Inhibition of cell growth in A431; type: cell-based; conditions: Homo sapiens, A-431
[5] = tested on: pStat3; test: In-Cell-Western blot assay for pStat3 (ICW) in A431 cells; type: cell-based; conditions: Homo sapiens, A-431, 2 hrs, read-out: pSTAT3 inhibition
Procedure: A431 cells were seeded onto a 96-well micro plate. After overnight serum starvation cells were incubated with compounds for 2 hrs. Cells were fixed with 4% paraformaldehyde in PBS and then permeabilized with 0.1% Triton X-100 in PBS (PBST). Cells were blocked with 5% BSA in PBST for 2 hrs, followed by overnight incubation with phospho Stat3 antibody. Cells were washed and incubated with europium-labeled anti-rabbit secondary antibody for 2 hrs. After washing enhancement solution was added to the wells. The micro-plate was read on the Victor instrument at the Europium setting. The Hoechst readings were used to normalize for cell number. IC50 values were calculated with the normalized europium values using Graphpad Prism.

[6] = tested on: A549 cells; test: Cell viability assay (XTT assay), A549; type: cell-based; conditions: Homo sapiens, 72 hrs
Procedure: as §2, with “Next” for “Mda-Mb-231 or A549 cells were seeded onto a 96-well micro plate. Next”, “The absorbance of the samples was measured with a spectrophotometer at a wavelength of 465 nm.” left out

JAK2, sequence (O60674 whole entry): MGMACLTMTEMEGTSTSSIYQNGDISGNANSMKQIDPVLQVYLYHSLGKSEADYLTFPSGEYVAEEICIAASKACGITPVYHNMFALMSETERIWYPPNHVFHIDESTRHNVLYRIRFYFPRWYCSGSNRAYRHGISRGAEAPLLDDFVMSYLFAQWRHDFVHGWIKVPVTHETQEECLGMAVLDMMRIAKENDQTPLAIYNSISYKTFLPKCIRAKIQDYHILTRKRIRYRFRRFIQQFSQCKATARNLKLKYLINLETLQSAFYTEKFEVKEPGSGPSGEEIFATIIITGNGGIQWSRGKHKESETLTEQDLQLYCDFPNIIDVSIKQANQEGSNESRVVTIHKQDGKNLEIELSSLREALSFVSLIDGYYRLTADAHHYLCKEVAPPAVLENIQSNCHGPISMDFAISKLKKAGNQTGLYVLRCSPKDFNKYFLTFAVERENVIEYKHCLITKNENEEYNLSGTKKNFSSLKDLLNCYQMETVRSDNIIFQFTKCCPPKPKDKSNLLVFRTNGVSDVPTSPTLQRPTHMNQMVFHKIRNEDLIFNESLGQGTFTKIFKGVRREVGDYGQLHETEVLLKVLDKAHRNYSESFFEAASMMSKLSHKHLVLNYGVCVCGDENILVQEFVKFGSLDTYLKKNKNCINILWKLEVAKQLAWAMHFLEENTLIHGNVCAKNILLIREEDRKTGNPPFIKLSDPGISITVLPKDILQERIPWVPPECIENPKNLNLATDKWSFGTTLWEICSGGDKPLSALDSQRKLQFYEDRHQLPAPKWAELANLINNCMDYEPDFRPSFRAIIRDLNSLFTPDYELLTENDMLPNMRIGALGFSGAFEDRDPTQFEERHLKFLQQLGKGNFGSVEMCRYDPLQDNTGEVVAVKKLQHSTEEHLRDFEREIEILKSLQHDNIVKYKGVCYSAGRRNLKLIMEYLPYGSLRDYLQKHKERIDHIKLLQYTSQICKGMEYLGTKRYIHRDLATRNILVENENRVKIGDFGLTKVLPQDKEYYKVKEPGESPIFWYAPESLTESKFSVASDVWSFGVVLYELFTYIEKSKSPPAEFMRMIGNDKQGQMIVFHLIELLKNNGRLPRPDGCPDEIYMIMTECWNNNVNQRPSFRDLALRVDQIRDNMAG

| SMILES | IC50 [1] | EC50 [2] | IC50 [3] | EC50 [4] | IC50 [5] | inhibition at 0.1 µM [1] | inhibition at 1 µM [1] | inhibition at 0.1 µM [3] | inhibition at 1 µM [3] | EC50 [6] |
| --- | --- | --- | --- | --- | --- | --- | --- | --- | --- | --- |
| Cc1ccc(NC(=O)c2ccc(C(F)(F)F)s2)cc1N1CCc2nc(Nc3ccc(OCCN4CCCC4)cc3)ncc2C1 [Compound 106, 5-Trifluoromethyl-thiophene-2-carboxylic acid (4-methyl-3-{2-[4-(2-pyrrolidin-1-yl-ethoxy)-phenylamino]-7,8-dihydro-5H-pyrido[4,3-d]pyrimidin-6-yl}-phenyl)-amide] | 18 nM | 310 nM | 2 nM | 220 nM | 220 nM | 85% | 98% | 99% | 100% |  |
| Cc1ccc(NC(=O)N2CCCCC2)cc1N1CCc2nc(Nc3ccc(OCCN4CCCC4)cc3)ncc2C1 [Compound 107, Piperidine-1-carboxylic acid (4-methyl-3-{2-[4-(2-pyrrolidin-1-yl-ethoxy)-phenylamino]-7,8-dihydro-5H-pyrido[4,3-d]pyrimidin-6-yl}-phenyl)-amide] | 40 nM | 610 nM | 1 nM | 120 nM | 120 nM | 72% | 94% | 93% | 98% |  |
| Cc1ccc(NC(=O)c2cccc(C(F)(F)F)c2)cc1N1CCc2nc(Nc3ccc(C(=O)N4CCN(C)CC4)nc3)ncc2C1 [Compound 132, N-(4-Methyl-3-{2-[6-(4-methyl-piperazine-1-carbonyl)-pyridin-3-ylamino]-7,8-dihydro-5H-pyrido[4,3-d]pyrimidin-6-yl}-phenyl)-3-trifluoromethyl-benzamide] | 3 nM | 41 nM | 5 nM |  | 480 nM |  |  |  |  | 47 nM |
| Cc1ccc(NC(=O)c2cccc(C(F)(F)F)c2)cc1N1CCc2nc(Nc3ccc(S(=O)(=O)NC4CC4)cc3)ncc2C1 [Compound 165, N-{3-[2-(4-Cyclopropylsulfamoyl-phenylamino)-7,8-dihydro-5H-pyrido[4,3-d]pyrimidin-6-yl]-4-methyl-phenyl}-3-trifluoromethyl-benzamide] | 54 nM | 440 nM | 16 nM | 320 nM | 257 nM | 74% | 93% | 93% | 98% |  |
| Cc1cnc(Nc2ccc(OCCN3CCCC3)cc2)nc1Nc1cccc(S(=O)(=O)NC(C)(C)C)c1 [TG101348, reference compound] |  | 680 nM |  |  | > 10000 nM |  |  |  |  | 1200 nM |

Results, then the molecule that gave them:

| IC50 [1] | EC50 [2] | IC50 [3] | EC50 [4] | IC50 [5] | inhibition at 0.1 µM [1] | inhibition at 1 µM [1] | inhibition at 0.1 µM [3] | inhibition at 1 µM [3] | EC50 [6] | SMILES |
| --- | --- | --- | --- | --- | --- | --- | --- | --- | --- | --- |
| 14 nM | 120 nM | 6 nM | 290 nM | 300 nM |  |  |  |  |  | Cc1ccc(NC(=O)c2cccc(C(F)(F)F)c2)cc1N1CCc2nc(Nc3ccc(C(=O)N4CCCC4)cc3)ncc2C1 [Compound 99, N-(4-Methyl-3-{2-[4-(pyrrolidine-1-carbonyl)-phenylamino]-7,8-dihydro-5H-pyrido[4,3-d]pyrimidin-6-yl}-phenyl)-3-trifluoromethyl-benzamide] |
|  | 3340 nM |  | 1300 nM |  | 85% | 93% | 53% | 77% | 2540 nM | O=C(Nc1ccc(Cl)c(N2CCc3nc(Nc4ccc(OCCN5CCCC5)cc4)ncc3C2=O)c1)c1cccc(C(F)(F)F)c1 [Compound 181, N-(4-Chloro-3-{5-oxo-2-[4-(2-pyrrolidin-1-yl-ethoxy)-phenylamino]-7,8-dihydro-5H-pyrido[4,3-d]pyrimidin-6-yl}-phenyl)-3-trifluoromethyl-benzamide] |
|  | 2760 nM |  | 5070 nM |  | 55% | 85% | 51% | 80% | 1080 nM | Cc1ccc(NC(=O)c2cccc(C(F)(F)F)c2)cc1N1CCc2nc(Nc3ccc(OCCCN4CCOCC4)cc3)ncc2C1=O [Compound 182, N-(4-Methyl-3-{2-[4-(3-morpholin-4-yl-propoxy)-phenylamino]-5-oxo-7,8-dihydro-5H-pyrido[4,3-d]pyrimidin-6-yl}-phenyl)-3-trifluoromethyl-benzamide] |
